# Laboratory results taken from ChEMBL document CHEMBL1201862, “PubChem BioAssay data set” (2004).
# Active and inactive are the calls of the source.
# Legend:
# [1] = target: T1, Rac GTPase-activating protein 1 (Homo sapiens, UniProt Q9H0H5); experiment: MgcRacGAP GTPase-activating activity inhibitors, confirmation, biochemical, ADP Hunter fluorescence, primary and confirmatory (AID 624330); format: functional
# T1 sequence (Q9H0H5 whole entry): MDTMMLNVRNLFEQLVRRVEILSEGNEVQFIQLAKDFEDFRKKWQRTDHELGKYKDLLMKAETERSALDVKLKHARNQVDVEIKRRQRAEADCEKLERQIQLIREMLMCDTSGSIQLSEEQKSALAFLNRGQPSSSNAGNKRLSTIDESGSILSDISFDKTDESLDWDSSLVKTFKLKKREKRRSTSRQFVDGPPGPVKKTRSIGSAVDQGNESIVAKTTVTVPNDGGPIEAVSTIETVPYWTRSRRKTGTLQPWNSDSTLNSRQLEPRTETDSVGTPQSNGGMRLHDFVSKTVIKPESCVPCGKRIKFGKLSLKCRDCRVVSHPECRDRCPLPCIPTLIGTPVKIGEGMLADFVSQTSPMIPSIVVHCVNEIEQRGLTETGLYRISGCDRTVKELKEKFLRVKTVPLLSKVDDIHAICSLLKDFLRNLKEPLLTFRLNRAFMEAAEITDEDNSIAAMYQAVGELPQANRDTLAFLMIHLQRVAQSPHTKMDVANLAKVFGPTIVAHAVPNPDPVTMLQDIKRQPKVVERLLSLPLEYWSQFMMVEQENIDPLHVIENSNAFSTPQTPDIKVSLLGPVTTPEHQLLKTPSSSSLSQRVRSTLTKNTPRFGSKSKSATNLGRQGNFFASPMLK
# [2] = microbe, parasite or virus in culture; format: functional; conditions: Mycobacterium tuberculosis
# Streptococcus = experiment: Group A Streptococcus viability loss, dose response, counter-screen for streptokinase expression inhibitor project, luminescence, BacTiterGlo (AID 1915); format: functional, organism-based;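 also: potency for reduction of bacterial viability or growth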
# Streptokinase A = target: T2, Streptokinase A (Streptococcus pyogenes serotype M1, UniProt P10520); experiment: S. pyogenes streptokinase expression inhibitors, potency, dose response, plasminogen activation absorbance, OD405 (AID 1914); format: functional, Streptococcus pyogenes M1 GAS;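 also: secreted streptokinase activity via plasminogen activation per viability signal from cell pellet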
# T2 sequence (P10520 whole entry): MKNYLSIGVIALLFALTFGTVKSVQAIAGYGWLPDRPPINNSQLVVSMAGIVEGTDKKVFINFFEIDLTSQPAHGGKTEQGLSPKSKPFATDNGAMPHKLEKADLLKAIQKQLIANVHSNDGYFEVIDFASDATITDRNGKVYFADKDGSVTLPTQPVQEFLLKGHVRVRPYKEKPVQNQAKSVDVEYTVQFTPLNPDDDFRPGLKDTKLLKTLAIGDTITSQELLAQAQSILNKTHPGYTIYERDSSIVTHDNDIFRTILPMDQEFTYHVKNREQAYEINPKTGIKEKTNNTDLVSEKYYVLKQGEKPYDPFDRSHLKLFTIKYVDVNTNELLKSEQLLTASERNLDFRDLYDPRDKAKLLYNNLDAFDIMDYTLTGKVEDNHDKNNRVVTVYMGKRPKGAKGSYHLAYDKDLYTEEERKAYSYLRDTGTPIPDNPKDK
# [3] = tested on: Streptococcus sp. 'group A'; experiment: growth inhibition of control SK(-) GAS strain, dose response, counter-screen for streptokinase expression inhibitor project, luminescence, kanamycin, BacTiterGlo, confirmation (AID 1900); format: functional, organism-based
# INS1 = experiment: beta cell apoptosis inhibitors, cytokine rescue, dose response, luminescence, retest (AID 449756); format: functional, cell-based; conditions: Rattus norvegicus;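 also: cell death triggered by IL-1 beta plus TNF-alpha plus IFN-gamma mixture; protective hits raise ATP signal compared with cytokine alone wells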
SMILES,IC50 [1],EC50 (Streptococcus),EC50 (Streptokinase A),EC50 [3],further results
O=C(N/C(=C\c1ccc(O)cc1)C(=O)N1CCCCC1)c1ccccc1,47.3 µM (active),–,–,–,–
COCCn1nnnc1C(c1cc2cc(OC)ccc2nc1O)N1CCC(Cc2ccccc2)CC1 (centres undefined),–,–,–,–,CC50 [2]: > 40 µM (active)
COCC/N=C1/Sc2nc3ccc(C)cc3cc2CN1Cc1ccco1,–,–,–,–,CC50 [2]: > 40 µM (active)
CC(C(=O)N1CCCc2ccccc21)N1CCN(c2ccccn2)CC1 (centres undefined),93.9 µM (active),–,–,–,–
Cc1oc(C(C)(C)C)cc1C(=O)N1CCN(C(c2ccccc2)c2ccccc2)CC1,–,16.4 µM (active),17.6 µM (active),2.64 µM (active),–
O=C(NNC(=S)NC(=O)c1ccco1)c1ccc(NC(=O)c2ccccc2)cc1,–,9.14 µM (active),> 150 µM (not active),0.973 µM (active),–
COc1ccccc1NC(=O)Nc1nc(CC(=O)Nc2cc(F)ccc2F)cs1,–,30.9 µM (active),> 150 µM (not active),11.5 µM (active),–
CCCCCCCCCCCCC(NC(C)=O)(C(=O)OCC)C(=O)OCC,–,8.56 µM (active),> 150 µM (not active),6.45 µM (active),–
CN1CC(=O)N(CC(=O)Nc2ccc(N(C)C)cc2)c2ccccc2C1=O,56.7 µM (active),–,–,–,–
Cc1ccc(C(C)(C)C)cc1S(=O)(=O)N1CCC(C(=O)N2CCN(c3ccc(O)cc3)CC2)CC1,99.1 µM (active),–,–,–,–
COc1ccc(-n2c(=S)[nH]c3cc(C(=O)Nc4ccccc4OC)ccc3c2=O)cc1,–,–,–,–,AC50 (INS1): 6.62 µM (active)
